The target of one assay is T1, OGFOD1 (Homo sapiens, UniProt Q8N543).
T1 construct: made in house
T1 sequence (Q8N543 1-542): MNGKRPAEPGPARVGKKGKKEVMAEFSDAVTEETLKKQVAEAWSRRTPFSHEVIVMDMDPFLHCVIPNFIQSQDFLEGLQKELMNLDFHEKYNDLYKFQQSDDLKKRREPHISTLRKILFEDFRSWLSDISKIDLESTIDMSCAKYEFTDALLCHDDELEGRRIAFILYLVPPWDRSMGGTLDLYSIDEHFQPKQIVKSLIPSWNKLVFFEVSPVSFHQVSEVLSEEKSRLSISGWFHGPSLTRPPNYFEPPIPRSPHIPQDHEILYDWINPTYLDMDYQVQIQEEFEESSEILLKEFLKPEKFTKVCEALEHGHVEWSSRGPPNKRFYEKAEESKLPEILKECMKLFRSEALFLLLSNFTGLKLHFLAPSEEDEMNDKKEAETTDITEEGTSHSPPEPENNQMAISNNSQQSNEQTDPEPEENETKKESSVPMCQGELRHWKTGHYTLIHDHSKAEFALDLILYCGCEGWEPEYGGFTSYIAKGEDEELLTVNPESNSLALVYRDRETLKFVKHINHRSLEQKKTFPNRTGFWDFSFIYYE
As to the kind of experiment: MALDI-TOF MS OGFOD1 hydroxylation assay. Particulars: at 10 μM inhibitor. The format is biochemical. As for the experimental part: Supplementary Information […]
acid. […] Assay plates were transferred to a
MALDI-TOF MS OGFOD1 Hydroxylation Assays […]
metal affinity chromatography.
The optimized hydroxylation […]
presence of Fe(II) (50 μM), 2OG (25 μM), L-ascorbic acid (100 μM) and RPS2351-70 (25 μM) in HEPES (50 mM, pH 7.5) at 37 °C for 15 min. Reagent solutions were made as previously reported.[23] Reactions were quenched with formic acid (1 % v/v). Samples were prepared by mixing reaction mixture (1 μL) with α-cyano-4-hydrocinnamic acid (CHCA) solution (water:acetonitrile 1:1) (1 μL). Dose-response was assessed in 8-point triplicates.
(§1) Data were analysed using GraphPad Prism 5.04.

Assay [1] addresses T2, KDM4A (Homo sapiens, UniProt O75164).
T2 sequence (O75164 1-359 limits assumed): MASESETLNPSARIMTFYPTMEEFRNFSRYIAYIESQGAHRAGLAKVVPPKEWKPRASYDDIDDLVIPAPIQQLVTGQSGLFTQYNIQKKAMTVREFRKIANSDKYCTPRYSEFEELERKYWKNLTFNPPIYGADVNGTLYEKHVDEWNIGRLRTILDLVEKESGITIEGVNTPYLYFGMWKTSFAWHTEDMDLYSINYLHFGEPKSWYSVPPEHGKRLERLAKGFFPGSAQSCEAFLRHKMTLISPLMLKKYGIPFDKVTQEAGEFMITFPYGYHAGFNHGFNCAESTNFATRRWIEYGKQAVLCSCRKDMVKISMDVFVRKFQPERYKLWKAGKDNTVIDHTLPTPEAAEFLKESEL
Kind of assay: biochemical.
Method: RapidFire-MS KDM4A hydroxylation assays
(§2) (RF-MS). […] The KDM4A RF-MS assay measures
(§3) depletion of a histone H3-K9 (Me3) peptide substrate and appearance of the dimethyl peptide
(§4) oxoglutarate (2OG, code K3752) were from Sigma Aldrich (Poole, Dorset). The H3K9Me3 peptide
(§5) each day to a concentration of 50 mM in deionized water, ferrous ammonium sulphate was prepared
(§6) freshly each day by dissolving to 400 mM in 10 mM HCl and then dilution to 1 mM in deionized
(§7) water, 2OG was prepared freshly each day by dissolving in 10 mM in deionized water. The
(§8) KDM4A RF-MS assay was performed in 384-well plate format in assay buffer (50 mM MES pH
(§9) 7.0). All reagent dispenses were performed using a multidrop reagent dispenser (Thermo). Dilutions
(§10) of compounds were prepared using an ECHO 550 acoustic dispenser (Labcyte) and dry dispensed
(§11) (250 nL) in duplicate into 384-well polypropylene plates (Greiner Bio-One); DMSO (250 nL) was
(§12) dispensed into columns 12 and 2, 4-pyridinedicarboxylic acid (a known JmjC KDM inhibitor)[21]
(§13) (250 nL of 10 mM) was dispensed into column 24 as a no enzyme control. KDM4A (300 nM) was
(§14) minutes. Reaction was initiated by dispensing of 25 µL of assay buffer containing substrate and co-
(§15) factors (200 µM LAA, 20 µM FAS, 20 µM 2OG and 20 µM H3K9Me3 peptide); reactions were
(§16) allowed to progress for 50 minutes, then stopped by addition of 5 µL of 10% (v/v) aqueous formic
(§17) acid. The final assay concentration of DMSO was 0.5% (v/v). Assay plates were transferred to a
(§18) RapidFire RF365 high throughput sampling robot and samples aspirated under vacuum onto a C4
(§19) SPE cartridge. After an aqueous wash step (0.1% v/v formic acid in water) to remove non-volatile
(§20) buffer components from the C4 SPE, peptide was eluted from the C4 SPE in an organic wash step
(§21) cycle of sample aspiration, loading, wash and elution takes approximately 12 seconds. Peptide
(§22) charge states were monitored in the positive ESI mode with a drying gas temperature of 280°C, a
(§23) drying gas flow rate of 13 L/minute, nebulizer gas pressure of 40 PSI, sheath gas temperature of
(§24) 350°C, sheath gas flow rate of 12 L/min and a nozzle voltage of 1000V. Ion chromatogram data
(§25) was extracted for the substrate and the product methyl marks and peak area data for extracted ion
(§26) chromatograms were integrated using RapidFire Integrator software (Agilent). % conversion to the
(§27) dimethyl peptide product was calculated using the equation:
(§28) % conversion = 100 x dimethyl / (dimethyl + trimethyl peptide)
(§29) IC50 data were determined from non -linear regression plots using GraphPad prism 6.0

Assay [2] concerns the target T3, PHD2_181‐426 (Homo sapiens, UniProt Q9GZT9). Kind of assay: biochemical.
Assay [3] deals with T3, PHD2_181‐426. Kind of assay: biochemical. This is another data set of the same source.
Assay [4] addresses T4, viral collagen prolyl hydroxylase (vCPH) (Paramecium bursaria Chlorella virus 1, UniProt Q84406).
T4 construct: made in house
As to the kind of experiment: MALDI-TOF MS vCPH hydroxylation assay. The class given is biochemical. As for the experimental part: Supplementary Information presence of Fe(II) (50 μM), 2OG (25 μM), L-ascorbic acid (100 μM) and RPS2351-70 (25 μM) in HEPES (50 mM, pH 7.5) at 37 °C for 15 min. Reagent solutions were made as previously reported.[23] Reactions were quenched with formic acid (1 % v/v). Samples were prepared by mixing reaction mixture (1 μL) with α-cyano-4-hydrocinnamic acid (CHCA) solution (water:acetonitrile 1:1) (1 μL). Dose-response was assessed in 8-point triplicates.
as §1

Another assay concerns the target FIH (Homo sapiens, UniProt Q9NWT6). As to the kind of experiment: biochemical.
The next assay has as its system Hep‐3B human cell line. As to the kind of experiment: Cellular HIF-1α stabilization by immunoblotting. The class given is cell-based. Particulars: Hep3B, 3 hours, immunoblot. As for the experimental part:
Other factors including cell penetration and metabolism likely impact on cellular activity.
Supplementary Information
Figure S7: Immunoblots of Hep3B cells treated with 100 μM (A) and 20 μM (B) PHD inhibitors for 3 hours. The blots show protein levels of HIF1-α and β-actin at the 3rd hour. Protocols for cell culture and immunoblotting have been previously reported.[2] […]

Assay [5] deals with T2, KDM4A.
Method: RapidFire-MS KDM4A hydroxylation assays
as §2, §3, §4, §5, §6, §7, §8, §9, §10, §11, §12, §13, §14, §15, §16, §17, §18, §19, §20, §21, §22, §23, §24, §25, §26, §27, §28, §29

Read-outs that look alike come from different tables or passages of the source.

T3 sequence (Q9GZT9 181-426): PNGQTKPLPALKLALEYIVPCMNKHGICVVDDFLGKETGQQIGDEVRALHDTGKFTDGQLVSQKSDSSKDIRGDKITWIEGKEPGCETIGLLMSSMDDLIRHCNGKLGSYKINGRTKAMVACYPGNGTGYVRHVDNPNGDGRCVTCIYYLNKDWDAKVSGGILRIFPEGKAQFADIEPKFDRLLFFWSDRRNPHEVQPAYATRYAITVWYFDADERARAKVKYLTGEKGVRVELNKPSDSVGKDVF
Chain of FIH (Q9NWT6 whole entry): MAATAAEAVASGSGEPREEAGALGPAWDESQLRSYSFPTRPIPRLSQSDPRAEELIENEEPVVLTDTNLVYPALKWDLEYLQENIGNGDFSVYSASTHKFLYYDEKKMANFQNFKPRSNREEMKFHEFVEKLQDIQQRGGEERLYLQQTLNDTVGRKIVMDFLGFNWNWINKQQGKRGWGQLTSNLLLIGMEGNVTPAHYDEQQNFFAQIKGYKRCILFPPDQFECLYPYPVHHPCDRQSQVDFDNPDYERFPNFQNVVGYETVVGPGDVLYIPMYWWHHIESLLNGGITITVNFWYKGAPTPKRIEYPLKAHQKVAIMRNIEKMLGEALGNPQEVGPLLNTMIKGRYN
T4 sequence (Q84406 entry or part of it): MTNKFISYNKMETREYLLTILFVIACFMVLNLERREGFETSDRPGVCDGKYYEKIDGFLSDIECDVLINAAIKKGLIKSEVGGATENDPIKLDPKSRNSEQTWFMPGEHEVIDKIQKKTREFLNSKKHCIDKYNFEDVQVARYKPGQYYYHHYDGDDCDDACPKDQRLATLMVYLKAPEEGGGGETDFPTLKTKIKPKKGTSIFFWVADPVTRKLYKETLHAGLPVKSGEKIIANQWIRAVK
Method for FIH: chromatogram data were extracted for the +2 charge state and peak area data integrated using
RapidFire Integrator software (Agilent). The % conversion of the CODD peptide substrate to the +16 hydroxylated peptide was calculated using the equation:
determined from non-linear regression plots using GraphPad prism 6.0.
was normalized to no enzyme control.2
RapidFire-MS FIH hydroxylation assays
in the assay buffer (50 mM Tris-HCl pH 7.8, 50 mM NaCl) was pre - incubated for 15 minutes in
the presence of the inhibitors and the enzyme reaction initiated by addition of 20 μL substrate (200
μM L-ascorbic acid, 20 μM Fe(II) sulfate, 10 μM synthetic ankyrin peptide and 20 μM 2OG).[16]
After 15 minutes the reaction was quenched by addition of 4 μL 10% formic acid and the reaction
transferred to a RapidFire RF360 high throughput sampling robot. Samples were aspirated under
vacuum onto a C4 SPE cartridge. After an aqueous washing step (0.1% (v/v) aqueous formic acid),
to remove non-volatile buffer components from the C4 SPE cartridge , peptide was eluted in an
Ion chromatogram data was extracted for the non -hydroxylated
peptide substrate and the hydroxylated peptide product; the peak area data for extracted ion
chromatograms were integrated using RapidFire Integrator software. % conversion of substrate to
product was calculated in Microsoft excel and IC50 curves generated using Graph pad Prism.

Turning to `Cc1nc(C(=O)NCC(=O)O)c(O)c2ccc(Oc3ccccc3)cc12` [compound 1, Roxadustat, reference compound], at OGFOD1, the “OGFOD1 activity relative to control” value turned out to be 100%.

Turning to `CCOC(=O)c1cnc(-n2cccn2)nc1O` [compound 6, Ethyl 4-hydroxy-2-(1H-pyrazol-1-yl) pyrimidine-5-carboxylate], the IC50 against KDM4A [1], at PHD2_181‐426 [2], on PHD2_181‐426 [3] and on FIH was greater than 25 µM in each case. In assay [4], the “vCPH inhibition (in words)” value was “inactive”.

Regarding `O=C(NCc1ccc(Oc2ccccc2)cc1)c1cnc(-n2cccn2)nc1O` [compound 8, 4-Hydroxy-N-(4-phenoxybenzyl)-2-(1H-pyrazol-1-yl)pyrimidine-5-carboxamide], the “cellular HIF‐1α stabilization” value with Hep‐3B human cell line (100 μM) was “strongest activity”. Also, the IC50 against KDM4A [1] was greater than 25 µM; in assay [4], 2 ± 0.1 µM. The “OGFOD1 activity relative to control” value at OGFOD1 was 83±13%.

Consider `O=C(NCc1ccc(-c2ccccc2)cc1)c1cnc(-n2cccn2)nc1O` [compound 9, N-([1,1’-Biphenyl]-4-ylmethyl)-4-hydroxy-2-(1H-pyrazol-1-yl)pyrimidine-5-carboxamide], for which the IC50 at KDM4A [1] was 20 µM; on FIH, greater than 25 µM.

At KDM4A [1], `O=C(NCc1ccccc1)c1cnc(-n2cccn2)nc1O` [compound 10, N-Benzyl-4-Hydroxy-2-(1H-pyrazol-1-yl)pyrimidine-5-carboxamide] came in with an IC50 greater than 25 µM.

`O=C(NCc1ccccn1)c1cnc(-n2cccn2)nc1O` [compound 11, 4-Hydroxy-2-(1H-pyrazol-1-yl)-N-(pyridin-2-ylmethyl)pyrimidine-5-carboxamide] returned a half-inhibitory concentration (IC50) against KDM4A [1] of 17 µM. In other words, the double-digit micromolar range.

As to `O=C(NCC1CCCCC1)c1cnc(-n2cccn2)nc1O` [compound 12, N-(Cyclohexylmethyl)-4-hydroxy-2-(1H-pyrazol-1-yl)pyrimidine-5-carboxamide], the IC50 at KDM4A [1], against PHD2_181‐426 [2], against PHD2_181‐426 [3] and against FIH was greater than 25 µM throughout.

For the compound `O=C(NCc1cccc(C(F)(F)F)c1)c1cnc(-n2cccn2)nc1O` [compound 13, 4-Hydroxy-2-(1H-pyrazol-1-yl)-N-(3-(trifluoromethyl)benzyl)pyrimidine-5-carboxamide], the IC50 against KDM4A [1] and against FIH was greater than 25 µM throughout. The “OGFOD1 activity relative to control” value on OGFOD1 was 75±1%.

Consider `O=C(NCc1ccc2c(c1)OCO2)c1cnc(-n2cccn2)nc1O` [compound 14, N-(Benzo[d][1,3]dioxol-5-ylmethyl)-4-hydroxy-2-(1H-pyrazol-1-yl)pyrimidine-5-carboxamide], for which the values for the IC50 on KDM4A [1], against PHD2_181‐426 [2] and at PHD2_181‐426 [3] were 23 µM, 0.274 ± 0.034 µM and 0.261 ± 0.037 µM, respectively.

`O=C(Nc1ccc(-c2ccccc2)cc1)c1cnc(-n2cccn2)nc1O` [compound 15, N-([1,1’-Biphenyl]-4-yl)-4-hydroxy-2-(1H-pyrazol-1-yl)pyrimidine-5-carboxamide]: the “cellular HIF‐1α stabilization” value in the assay with Hep‐3B human cell line (20 μM) is reported as “manifested HIF‐1α stabilization”; with Hep‐3B human cell line (100 μM), “strongest activity”. In addition, the results for the IC50 (at KDM4A [1]; in assay [4]) were greater than 25 µM and 28.2 ± 1 µM, respectively.

For the compound `O=C(N[C@@H](CO)c1ccccc1)c1cnc(-n2cccn2)nc1O` [compound 16], the “cellular HIF‐1α stabilization” value in the assay on Hep‐3B human cell line (100 μM) was “inactive”. Also, the 50% inhibitory concentration (IC50) against KDM4A [1] was greater than 25 µM; in assay [4], 1.1 ± 0.1 µM. For the same compound, the “OGFOD1 activity relative to control” value on OGFOD1 came out at 41±5%.

Regarding `O=C(N[C@H](CO)c1ccccc1)c1cnc(-n2cccn2)nc1O` [compound 17], the “cellular HIF‐1α stabilization” value in the assay on Hep‐3B human cell line (100 μM) is recorded as “modest HIF‐1α stabilization”. Also, the IC50 against KDM4A [1] is 21 µM. At OGFOD1, the “OGFOD1 activity relative to control” value stood at 70±3%.

Regarding `Cc1cccnc1CN1CCC2(CC1)C(=O)N(c1ccc(-c3ccccc3)cc1)C(=O)N2c1ncccn1` [compound 18, reference compound], the entries for the “cellular HIF‐1α stabilization” value in the assay on Hep‐3B human cell line (20 μM) and in the assay with Hep‐3B human cell line (100 μM) were “manifested HIF‐1α stabilization” and “strongest activity”, respectively. Moreover, the IC50 on KDM4A [5] is 4.65 µM; in assay [4] it was greater than 100 µM; at FIH, greater than 25 µM.

The values above are taken from paper PMC7496690, “Structure‐Activity Relationship and Crystallographic Studies on 4‐Hydroxypyrimidine HIF Prolyl Hydroxylase Domain Inhibitors” (Chemmedchem, 2019).
